From PMC4642847, “The PDB database is a rich source of alpha-helical anti-microbial peptides to combat disease causing pathogens” (F1000Research, 2015)
Where no end group is shown, it is not given here.

How the values were obtained:
[1] = test system: Liberibacter crescens BT-1 (Lc)
[2] = test system: Xylella fastidiosa 3A2 (Xf)
[3] = test system: Xanthomonas arboricola 417 (Xa)

Sequence	Minimum Inhibitory Concentration [1]	Minimum Inhibitory Concentration [2]	Minimum Inhibitory Concentration [3]
KWKVFKKIEKMGRNIRNGIVKAGPAIAVLGEAKAL [CECB, Cecropin B, reference compound]	100 µM	100 25 µM	–
TAYGIMARQPNSRKSFIDSSIRLAR [CHITI25]	>300 µM	100 150 µM	100 150 µM
TIWKGVPKFLRRVDTALKNI [PPC20]	200 µM	150 50 µM	–
TLDELELFTDAVERW [ISS15]	>300 µM	>300 >300 µM	>300 >300 µM
WKVFKKIEKMGRNIRNGIVKA [CBNT21, reference compound]	200 µM	200 25 µM	–
